Measured values: US4442106A, “Quinoline derivatives, pharmaceutical compositions containing such compounds, and methods of treating cardiovascular conditions with them” (ACF Chemiefarma N.V., priority 1980, dated 1984)
Read-outs that look alike come from different tables or passages of the source.

Tests used:
LD50 in mice = details: mouse, in vivo
[1] = system: right ventricle of the heart; experiment: Guinea Pigs Electrostimulation Test (arrhythmias by electrostimulation of the right ventricle of the heart); format: in vivo; details: Cavia porcellus, 0.5 h, 30 minutes before stimulation, read-out: Percent increase in voltage required for arrhythmia; for change in vivo at 32 mg/kg: standard dose 32 mg/kg intraduodenal
Protocol: Experiment 2-Effectiveness of the compounds of Examples in the Guinea Pigs Electrostimulation Test
Arrhythmias are induced in guinea pigs by electrostimulation of the right ventricle of the heart. The animals are anaesthesized with urethane (1.2 g/kg i.p.) and artificially respirated before a needle electrode is inserted in the right ventricle of the heart. Substances are given intraduodinally 30 minutes before the stimulation at a standard dose of 32 mg/kg. In some cases a different dose was used as indicated.
The voltage needed for induction of extra systoles in control animals (n=6) is compared with that required for induction of arrhythmias in treated animals (n=6).
This method is based on the work of L. Szekeres and G. J. Papp, Naunyn-Schmiedebergs Arch. Exp. Path. Pharmak., 245, 70 (1963).
In the table the results of certain compounds of the invention are mentioned, which have been carried out according to the method described above.
The numbers of the compounds correspond with those of the Examples.

[2] = system: spontaneously hypertensive rats; experiment: Effectiveness in spontaneously hypertensive rats: systolic blood pressure by tail cuff method; format: in vivo; details: Rattus norvegicus, read-out: Change of systolic blood-pressures
Protocol: Experiment 1-Effectiveness of the compounds of Examples in spontaneously hypertensive rats
Systolic blood pressures were recorded by a modification of the tail cuff method described by I.M. Claxton et al., Eur. J.Pharmacology 37, 179 (1976). An oscilloscope or W+W BP recorder, model 8002, was used to display pulses.
Prior to all measurements rats were placed in a heated environment (33.5±0.5° C.) before transfer to a restraining cage. Each determination of blood pressure was the mean of at least 6 readings.
Spontaneously hypertensive rats (aged 12-18 weeks) with systolic blood pressures >170 mm Hg were considered hypertensive.
In the following table the results with certain compounds of the invention, which have been carried out with the above-described method, are mentioned. The numbers of the compounds correspond with those of the Examples.

Compound	change in vivo at 32 mg/kg [1] [%]	change in vivo at 10 mg/kg ([2]; 1 h) [%]	change in vivo at 10 mg/kg ([2]; 2 h) [%]	change in vivo at 10 mg/kg ([2]; 4 h) [%]	change in vivo at 10 mg/kg ([2]; 6 h) [%]	change in vivo at 10 mg/kg ([2]; 24 h) [%]	further results
CCCN1CC[C@@H](CCC(=O)c2cc(C)nc3ccccc23)[C@@H](CC)C1 [Compound 26, N-propyl-2'-methyl-hydrocinchonicine]	24	0	3	-5	-7		LD50 (LD50 in mice): 500 mg/kg
CCCc1cc(C(O)CC[C@@H]2CCN(CCC)C[C@@H]2CC)c2ccccc2n1 (some centres unmarked) [Compound 41, N-propyl-2'-propyl-hydrocinchonicinol-1]		-6	-11	-15	-17	3	change in vivo at 8 mg/kg ([1]; intraduodenal): 101%
CCCN1CC[C@@H](CCCc2cc(C)nc3ccccc23)[C@@H](CC)C1 [Compound 43, 2'-Methyl-N-propyl-desoxo-hydrocinchonicine.bioxalate]	9						change in vivo at 100 mg/kg ([2]; 1 h): -1%; change in vivo at 100 mg/kg ([2]; 2 h): -12%; change in vivo at 100 mg/kg ([2]; 4 h): -28%; change in vivo at 100 mg/kg ([2]; 24 h): -15%
CCCOc1cc(C(=O)CC[C@@H]2CCN(C)C[C@@H]2CC)c2ccccc2n1 [Compound 51, N-methyl-2'-propoxy-hydrocinchonicine.bioxalate]	-5						change in vivo at 3 mg/kg ([2]; 1 h): -1%; change in vivo at 3 mg/kg ([2]; 2 h): 0%; change in vivo at 3 mg/kg ([2]; 4 h): -7%; change in vivo at 3 mg/kg ([2]; 6 h): -13%; change in vivo at 3 mg/kg ([2]; 24 h): -1%
CC[C@H]1CN(CCCC(=O)c2ccccc2)CC[C@H]1CC(O)Cc1cc(OC)nc2ccccc12 (some centres unmarked) [Compound 54, N-(3-benzoylpropyl)-2'-methoxy-hydrocinchonicinol-2]	16	-17	-1	-16	-16	7	
CCCCCN1CC[C@@H](CC(O)Cc2cc(C(F)(F)F)nc3ccccc23)[C@@H](CC)C1 (some centres unmarked) [Compound 61]		-8	-10	-13	-12	-7	change in vivo at 8 mg/kg ([1]; intraduodenal): 11%
CCCN1CC[C@@H](CC(=O)Cc2cc(OC)nc3ccccc23)[C@@H](CC)C1 [Compound 63, 1-(2-Methoxy-4-quinolyl)-3-[3(R)-ethyl-N-propyl-4(S)-piperidyl]-propanone-2.bioxalate]		-1	1	-4	-3	-6	change in vivo at 4 mg/kg ([1]; at 4 mg/kg, intraduodenal): 12%
